Tested on: model mice of hyperglycemia (KKAy mice)
Assay: Blood sugar level of model mice of hyperglycemia bred five days on PT- or PD-containing high fat diet
Assay type: in vivo, mouse
Conditions: for Blood sugar level (post-breeding): after five days; for Blood sugar level (initial value): before breeding
Text: Panaxatriol (PT) (product of LKT Laboratories, Inc.) was mixed with a commercially available high fat diet (trade name: Quick Fat, product of CLEA Japan, Inc.) in amounts shown in the following Table 1. Each of the thus-prepared feeds was given ad libitum to model mice of hyperglycemia (KKAy mice (product of CLEA Japan, Inc.), eight weeks old, 5 mice/group) to breed them for five days (hereinafter these groups may be referred to as “PT-containing group”). Mice of a control group were given a panaxatriol (PT)-free feed (hereinafter this group may be referred to as “PT-free group”). The blood sugar level was measured at 10 a.m. before breeding of the panaxatriol (PT)-containing high fat diet (initial value) and after breeding thereof (post-breeding). […] GB SENSOR (product of Sanko Junyaku Co., Ltd.) was used for the measurement of the blood sugar level. The values shown in the following Table 1 are calculated on the basis of the average value of two values obtained by measuring each individual twice for the postprandial blood sugar level. […] Panaxadiol (PD) (product of LKT Laboratories, Inc.) was mixed with a commercially available high fat diet (trade name: Quick Fat, product of CLEA Japan, Inc.) in amounts shown in the following Table 2. Each of the thus-prepared feeds was given ad libitum to model mice of hyperglycemia (KKAy mice (product of CLEA Japan, Inc.), eight weeks old, 5 mice/group) to breed them for five days (hereinafter these groups may be referred to as “PD-containing group”). Mice of a control group were given a panaxadiol (PD)-free feed (hereinafter this group may be referred to as “PD-free group”). The blood sugar level was measured at 10 a.m. before breeding of the panaxadiol (PD)-containing high fat diet (initial value) and after breeding thereof (post-breeding). […] GB SENSOR (product of Sanko Junyaku Co., Ltd.) was used for the measurement of the blood sugar level. The values shown in the following Table 2 are calculated on the basis of the average value of two values obtained by measuring each individual twice for the postprandial blood sugar level.

[1] = 0.0001% by mass in high fat diet ad libitum
[2] = 0.001% by mass in high fat diet ad libitum
[3] = 0.01% by mass in high fat diet ad libitum
[4] = group 0.0001% by mass in high fat diet
[5] = group 0.001% by mass in high fat diet
[6] = group 0.01% by mass in high fat diet

Row | Structure (SMILES) | Blood sugar level (post-breeding) [1] [mg/dL] | Blood sugar level (post-breeding) [2] [mg/dL] | Blood sugar level (post-breeding) [3] [mg/dL] | Blood sugar level (initial value) [4] [mg/dL] | Blood sugar level (initial value) [5] [mg/dL] | Blood sugar level (initial value) [6] [mg/dL]
1 | CC1(C)CCC[C@](C)([C@H]2CC[C@]3(C)[C@@H]2[C@H](O)C[C@@H]2[C@@]4(C)CC[C@H](O)C(C)(C)[C@@H]4CC[C@]23C)O1 [PD, panaxadiol] | 404 ± 17 | 323 ± 56 | 274 ± 34 | 454 ± 38 | 451 ± 34 | 454 ± 32
2 | CC1(C)CCC[C@](C)([C@H]2CC[C@]3(C)[C@@H]2[C@H](O)C[C@@H]2[C@@]4(C)CC[C@H](O)C(C)(C)[C@@H]4[C@@H](O)C[C@]23C)O1 [PT, panaxatriol] | 401 ± 15 | 318 ± 58 | 265 ± 39 | 455 ± 39 | 451 ± 34 | 451 ± 38
